Source: patent US20100184818A1, “PHOTOSENSITIZERS FOR TARGETED PHOTODYNAMIC THERAPY” (THE GENERAL HOSPITAL CORPORATION, priority 2007, published 2010)

What was measured:
[1] = Octanol-water distribution coefficient; assay type: physicochemical; settings: 1-octanol / DI water, absorbance at 330 nm
Experimental: Each compound was dissolved in a minimum amount of DMSO: CI1 (0.9 mg in 200 μl), CI2 (5.3 mg in 200 μl), CI3 (5.4 mg in 200 μl). Ten ml of DI water and 10 ml of 1-octanol were added in each compound and vigorously shaken for 2 min. and the vials of the compounds were settled down overnight. The phases were separated and UV-spectra of each phase were analyzed. Distribution coefficient of each compound was determined using absorbance of aqueous phases and organic phases at 330 nm.

[2] = Singlet oxygen 1270-nm luminescence and quantum yield; assay type: physicochemical; settings: for Singlet oxygen luminescence decay curve in organic solvent: CH3OD, 449 nm excitation; for Singlet oxygen decay curve when solvent changed to aqueous buffer: deuterated PBS versus CH3OD
From the text: The sample in a 0.25 mm quartz cell was illuminated within the resonant cavity as described above. Singlet oxygen phosphorescence at 1270 nm was monitored by a nitrogen-cooled germanium detector (Model EO-817, North Coast Scientific Corp, Santa Rosa, Calif.). Photoexcitation of the sample studied was induced by a 5 ns 355 nm laser pulse from a Q-switched Nd:YAG laser (Continuum Surelite II, Santa Clara, Calif.) equipped with an optical parametric oscillator (Opotek, Carlsbad, Calif.). Sample in deuterated PBS (pD ˜6.9) or in deuterated methanol (CH3OD) was excited with 449 nm wavelength.

J774 cells = assay: Intracellular reactive oxygen species, H2DCFDA probe fluorescence microscopy; assay type: cell-based, murine; settings: 5 μM BF4 for 24 h, then probe, 5 J/cm2 405 nm laser, compared with probe alone
Experimental: J774 cells were incubated with 5 μM BF4 for 24 h and on the next day 5 μg/ml of 5- (and -6)-chloromethyl-2′-7′-dichlorodihydrofluoresceine diacetate, (CMH2DCFDA, Molecular Probes, Invitrogen) in complete medium was added and incubated for 30 min at 37° C., then cells were washed with PBS and 5 J/cm2 of 405 nm laser light (Nichia Corp, Detroit, Mich.) was delivered. Five to 10 min later a Leica DMR confocal laser fluorescence microscope (Leica Mikroskopie and Systeme GmbH, Wetzler, Germany) with excitation by a 488 nm argon laser and emission with a 530 nm+/−10 nm bandpass filter, and a 63×1.20 water immersion lens was used to image the cells at a resolution of 1024×1024 pixels. Images were acquired using TCS NT software (Version 1.6.551, Leica Lasertechnik, Heidelberg, Germany).

CT26 cells = assay: PDT phototoxicity, MTT assay; assay type: cell-based, murine; settings: 2 μM, 80 J/cm2 of light
Experimental: When the cells reached 80% confluence, they were washed with PBS and harvested with 2 mL of 0.25% trypsin-EDTA solution (Sigma). Cells were then centrifuged and counted in trypan blue to ensure viability and plated at density of 5000/well in flat-bottom 96 well plates (Fisher Sci, Pittsburgh, Pa.). Cells were allowed 24 h to attach.
On the following day dilutions of the fullerenes were prepared in complete RPMI medium and added to the cells at […] for 24 h incubation as described. Prior to illumination the fullerene solution was removed and fresh complete medium was replaced and the illumination (150 mW/cm2 white light, 1-80 J/cm2) was performed. The light spot covered 9 wells which were considered as one experimental group. All wells in a group were illuminated at the same time. […]
Following PDT treatment the cells were returned to the incubator overnight and the phototoxicity was measured using a 4 h MTT assay read at 560 nm using a microplate spectrophotometer (Spectra Max 340 PC, Molecular Devices, Sunnyvale, Calif.). […]
Briefly cells were treated with PDT sufficient to kill 80% of cells (5 J/cm2 for J774, 20 J/cm2 for LLC and 80 J/cm2 for CT26). […] Samples were incubated in the dark for 1 h at 37° C. and fluorescence was measured (excitation 400 nm, emission 505 nm). The protein per sample was measured with bicinchoninic acid protein assay.

Row | Structure (SMILES) | LogKow [1] | Octanol-water partition constant Kow [1] | Singlet oxygen luminescence decay curve in organic solvent [2] | Singlet oxygen decay curve when solvent changed to aqueous buffer [2] | Fluorescence of intracellular ROS probe after illumination (J774 cells) | Lethal dose of PDT (share of cells killed) (CT26 cells) [%] | Singlet oxygen quantum yield in O2 saturated D2O, higher than that found in air ([2]; O2 saturated D2O versus air saturated) | Singlet oxygen luminescence in aqueous buffer saturated with nitrogen ([2]; nitrogen saturated aqueous buffer)
1 | O=C(NC(CO)CO)C1(C(=O)NC(CO)CO)c2c1c1c3ccc4c5c6c7c(c8c9c7c7c%10c%11c%12c(ccc%13c2c2c1c1c3c4c6c7c1c%10c2c%12%13)C(C=C8)C9%11)C1C5C1(C(=O)NC(CO)CO)C(=O)NC(CO)CO (stereo not drawn) [NI2] | −1.49 | 0.032 | – | – | – | – | – | –
2 | Cc1cc2nc3c(=O)[nH]c(=O)nc-3n(C[C@H](O)[C@H](O)[C@H](O)CO)c2cc1C [riboflavin, Riboflavin, reference compound] | – | – | somewhat larger | remained almost unchanged | – | – | – | –
3 | C[N+]1(C)Cc2c(c3c4ccc5c6c7c8c9c%10c%11c%12c%13c(c%14c%12c%12c(c2c2c%12c%11c9c(c4c58)c32)C2C[N+](C)(C)CC%142)C=CC2C%13C=%10C7C2C=C6)C1.[I-].[I-] (stereo not drawn) [CI2] | 0.11 | 1.28 | – | – | – | – | – | –
4 | C[N+]1(C)CC2c3c4c5c6c3c3c(c7ccc8c9ccc%10c%11c%12c%13c%14c(c6c6c3c7c8c(c9c%10%13)c%146)=C3C5C(C=C4)C(C=C%11)C3%12)C2C1.[I-] (stereo not drawn) [CI1] | 2.15 | 140.80 | very similar luminescence decay curves | almost disappeared | large increase in fluorescence | 80 | – | –
5 | C[N+]1(C)Cc2c3c4c5c6c7c8c9c(c%10c8c8c(c%11c%12c(c%13c%14ccc%15c(c2C1)c4c1c%15c%14c2c%13c%11c8c7c2c61)C[N+](C)(C)C%12)C1C[N+](C)(C)CC%101)C=CC3C95.[I-].[I-].[I-] (stereo not drawn) [CI3] | −0.43 | 0.37 | very similar luminescence decay curves | remained almost unchanged | – | 60 | about 50% | luminescence disappeared
6 | O=C(NC(CO)CO)C1(C(=O)NC(CO)CO)C2c3c4c5c6c3c3c(c7ccc8c9ccc%10c%11ccc%12c%13c(c%14c6c6c3c7c8c3c9c%10c(c%13%11)c%14c36)C5C%12C=C4)C21 (stereo not drawn) [NI1] | −1.61 | 0.025 | – | – | – | – | – | –
